In patent US6040338A, “N,n-bis(sulfonyl)hydrazines useful as antineoplastic agents” (Yale University, priority 1997, dated 2000):

How the values were obtained:
[1] = system: L1210 leukemia; conditions: single intraperitoneal dose; cited from earlier work
[2] = system: tumor; conditions: in vivo; cited from earlier work
[3] = system: host animals; conditions: in vivo; cited from earlier work
[4] = Initial rate of hydrolysis in aqueous media at pH 7.4 and 37° C.; format: physicochemical
Procedure: For example, the initial rates of hydrolysis of 2-acetyl-1,2-bis(methylsulfonyl)-1-methylhydrazine (an acyl derivative shown in structural formula 5) and 1,2-bis(methylsulfonyl)-2-methoxycarbonyl-1-methylhydrazine (a carbamate compound shown in structural formula 6) were 0.3% and 0.007% per minute, respectively, at pH 7.4 and 37° C. [drawing 12]

[5] = system: proteinase K or serum; experiment: Effect of proteinase K or serum on rate of decomposition/activation; format: in vitro ADME
[6] = system: GSH/GST; experiment: Relative rate of activation by GSH/GST in vitro; format: in vitro ADME; conditions: 1 mM compound, GSH 1 mM, GST 400 μg/ml; compound 6 = 100
Procedure: When R^3 is a methyl group, the rate of activation by GSH/GST is highly dependent upon the nature of the 2-alkoxy- or 2-aryloxycarbonyl moiety at the R^4 position.
The rate of activation of 2-(2-bromoethoxy)carbonyl-1,2-bis(methylsulfonyl)-1-methylhydrazine (compound 8) was elevated approximately 18-fold in vitro by the presence of GSH (1 mM) and GST (400 μg/ml), compared to buffer alone.

[7] = system: GST; experiment: Activation by GST-catalyzed thiolysis; format: in vitro ADME
Procedure: (§1) The rates of activation of compounds 10a-h were measured in 1 mM phosphate buffer (pH 7.4, 37° C.) alone, 1 mM phosphate buffer containing 5 mM GSH (pH 7.4, 37° C.), and in 1 mM phosphate buffer containing 5 mM GSH and 17.5 U/ml of GST (pH 7.4, 37° C.) (Table 3).

[8] = Activation by thiolysis (GSH); format: in vitro ADME
Procedure: as §1

[9] = system: CHO-K1/dhfr^- cells transfected with NADPH:cytochrome P450 reductase cDNA; experiment: Colony-forming assay, CHO-K1/dhfr^- cells overexpressing NADPH:cytochrome P450 reductase; format: cell-based, Chinese hamster
Procedure: The ability of compounds 10h, 11, 12, and 14 to exert preferential toxicity to hypoxic cells was evaluated using the EMT6 mammary carcinoma by methodology described previously (Rockwell, S., Keyes, S. R., and Sartorelli, A. C. Rad. Res. 116: 100-113 (1988); Keyes, S. R., Rockwell, S., and Sartorelli, A. C. Cancer Res. 45: 213-216 (1985)). Briefly, exponentially growing monolayers of EMT6 (or CHO-K1/dhfr clone) were exposed to a continuously flowing 95% N2 /5% CO2 humidified atmosphere for 2 h to produce radiobiologic hypoxia. Parallel flasks were maintained similarly in humidified 95% air/5% CO2. Without breaking the hypoxia, cells were exposed to various concentrations of the test agent for 1 hr. Cell survival was then measured by colony formation. […]
(§2) The cytotoxicity of compound loh was evaluated in aerobic and hypoxic Chinese hamster ovary (CHO-K1/dhfr^-) cells transfected with and overexpressing cDNAs for NADPH:cytochrome P450 reductase (27-fold more than parental cells, FIG. 3) or DT-diaphorase (133-fold more than parental cells, FIG. 4), two reductases with the potential to activate compound 10h. […]
(§3) Compound 12 was evaluated for its ability to exert preferential toxicity to hypoxic EMT6 cells relative to their aerobic counterparts. […]

[10] = system: L1210 leukemia; experiment: Survival time and body weight of mice bearing the L1210 leukemia; format: in vivo, mice (CD2 F1); conditions: Table 4; i.p. once daily for 6 days at optimum daily dose (10a 60, 10b 25, 10c 12.5, 10d-h 30 mg/kg)
Procedure: The ascites cell form of leukemia L1210 was obtained from the Frederick Cancer Research Facility, Division of Cancer Treatment Tumor Repository of the National Cancer Institute, and was maintained by serial passage in tissue culture. Every 8 weeks, tumor cells were injected intraperitoneally into 5 donor CD2 F1 mice 8-10 weeks of age and were allowed to grow for 7 days. The peritoneal fluid was withdrawn, and the suspension was centrifuged for 5 min at 1600×g. The supernatant was decanted, and 10^5 cells/ml were seeded into 10 ml of RPMI 1640 medium supplemented with 10% fetal bovine serum and 1% L-glutamine (200 mM) and once again maintained in culture. To assay for antitumor activity, 0.1 ml of the cell suspension containing 10^5 leukemia cells was injected into each recipient mouse. […] Each drug was administered intraperitoneally as a solution in 100% dimethyl sulfoxide, in a volume not exceeding 25 μl. […] Mice were weighed during the course of the experiments, and the percentage change in body weight from onset to termination of therapy was used as an indication of drug toxicity. Determination of the sensitivity of neoplasms to these agents was based upon the prolongation of survival time afforded by the drug treatments.
The antitumor activity of compounds 10a-h and 16 were assessed in mice bearing the L1210 leukemia. The results of these tests are summarized in Tables 4 and 5 which show the effects of 2-alkoxycarbonyl- and 2-aryloxycarbonyl-1,2-bis(methylsulfonyl)-1-(2-chloroethyl)hydrazines on the survival time of mice bearing the L1210 leukemia.
In Table 4, the optimum daily dose was administered once per day for six consecutive days, beginning 24 hours after tumor implantation, with 5-10 mice being used per group. In Table 5, multiple dosages of compound 16 are indicated. "Av Δ wt" refers to the average percent change in body weight from onset to termination of therapy. "% T/C" refers to the average survival time of treated/control mice×100. Cures (60-day survivors) are listed separately and are not included in this calculation.

[11] = system: CHO-K1/dhfr^- cells; experiment: Colony-forming assay, aerobic and hypoxic CHO-K1/dhfr^- cells; format: cell-based, Chinese hamster
Procedure: (§4) The ability of compounds 10h, 11, 12, and 14 to exert preferential toxicity to hypoxic cells was evaluated using the EMT6 mammary carcinoma by methodology described previously (Rockwell, S., Keyes, S. R., and Sartorelli, A. C. Rad. Res. 116: 100-113 (1988); Keyes, S. R., Rockwell, S., and Sartorelli, A. C. Cancer Res. 45: 213-216 (1985)). Briefly, exponentially growing monolayers of EMT6 (or CHO-K1/dhfr clone) were exposed to a continuously flowing 95% N2 /5% CO2 humidified atmosphere for 2 h to produce radiobiologic hypoxia. Parallel flasks were maintained similarly in humidified 95% air/5% CO2. Without breaking the hypoxia, cells were exposed to various concentrations of the test agent for 1 hr. Cell survival was then measured by colony formation.
CHO-K1/dhfr cells were used to examine the role of the reductive enzymes NADPH:cytochrome P450 reductase and DT-diaphorase in the activation of compounds 10h and 12 in situ. Clones of CHO-K1/dhfr^- cells transfected with and overexpressing cDNAs for each of these enzymes were used for this purpose (Belcourt, M. F., Hodnick, W. F., Rockwell, S., and Sartorelli, A. C. Proc. Natl. Acad. Sci. USA 93: 456-460 (1996); Belcourt, M. F., Hodnick, W. F., Rockwell, S., and Sartorelli, A. C. Biochem. Pharmacol. 51: 1669-1678 (1996)).
The cytotoxicity of compound loh was evaluated in aerobic and hypoxic Chinese hamster ovary (CHO-K1/dhfr^-) cells transfected with and overexpressing cDNAs for NADPH:cytochrome P450 reductase (27-fold more than parental cells, FIG. 3) or DT-diaphorase (133-fold more than parental cells, FIG. 4), two reductases with the potential to activate compound 10h. In FIGS. 3 and 4, points are means of duplicate determinations. […]
as §3

[12] = system: CHO-K1/dhfr^- cells transfected with DT-diaphorase cDNA; experiment: Colony-forming assay, CHO-K1/dhfr^- cells overexpressing DT-diaphorase; format: cell-based, Chinese hamster; conditions: 133-fold overexpression versus parental; FIG. 4
Procedure: as §4
CHO-K1/dhfr cells were used to examine the role of the reductive enzymes NADPH:cytochrome P450 reductase and DT-diaphorase in the activation of compounds 10h and 12 in situ. […]
as §2

[13] = Activation by hydrolysis in phosphate buffer; format: physicochemical
Procedure: as §1

[14] = system: EMT6 mammary carcinoma cells; experiment: Colony-forming assay, EMT6 cells under hypoxic or aerobic conditions; format: cell-based, mouse; conditions: 1 hr exposure
Procedure: as §4
The cytotoxicity of compound 10h was evaluated against EMT6 mouse mammary carcinoma cells in vitro under aerobic and hypoxic conditions using the colony-forming assay described above. FIG. 1 depicts the survival of EMT6 cells exposed to various concentrations of compound 10h for 1 hr under hypoxic or aerobic conditions in vitro. Points are the geometric means of two or more independent determinations of surviving fractions. The SEMs are shown where n≥3 and where the error is larger than the point size. Open triangles represent aerobic data points and filled triangles represent hypoxic data points.
Compound 12 was evaluated for its ability to exert preferential toxicity to hypoxic EMT6 cells relative to their aerobic counterparts. […] Points are geometric means of two or more independent determinations of surviving fractions. The SEMs are shown where n≥3 and where the error is larger than the point size. Open triangles are aerobic data points, and filled triangles are hypoxic data points. […] Points are means of duplicate determinations. Open triangles are parental-aerobic; filled triangles are parental-hypoxic; open circles are NADPH:cytochrome P450 reductase-transfected-aerobic; filled circles are NADPH:cytochrome P450 reductase-transfected-hypoxic.

## CS(=O)(=O)NN(CCCl)S(C)(=O)=O [Compound 2, 1,2-bis(methylsulfonyl)-1-(2-chloroethyl)hydrazine]
[1]
  cures of mice bearing the L1210 leukemia: 40%
[2]
  active dosage range (in words): active only over a narrow dosage range
  antitumor/antineoplastic activity (in words): most active compound of this class
[3]
  host toxicity (in words): considerable host toxicity

## CS(=O)(=O)N(CCCl)N(C(=O)NCCCl)S(C)(=O)=O [Compound 3]
[2]
  antitumor/antineoplastic activity (in words): broad-spectrum antitumor activity
[3]
  host toxicity (in words): considerably less toxic to host animals than compound 2

## CC(=O)N(N(CCCl)S(C)(=O)=O)S(C)(=O)=O [Compound 4]
[2]
  antitumor/antineoplastic activity (in words): broad-spectrum antitumor activity
[3]
  host toxicity (in words): considerably less toxic to host animals than compound 2

## CC(=O)N(N(C)S(C)(=O)=O)S(C)(=O)=O [Compound 5, 2-acetyl-1,2-bis(methylsulfonyl)-1-methylhydrazine, reference compound]
[4]
  initial rate of hydrolysis: 0.3 % per minute
[5]; levels of proteinase K or serum
  enhancement of rate of activation by proteinase K or serum: ~10 fold

## COC(=O)N(N(C)S(C)(=O)=O)S(C)(=O)=O [Compound 6, 1,2-Bis(methylsulfonyl)-2-(methoxycarbonyl)-1-methylhydrazine]
[6]
  Relative Activation Rate by GSH/GST: 100
[4]
  initial rate of hydrolysis: 0.007 % per minute
[5]; levels that enhanced activation of compound 5 almost 10-fold
  increase of rate of decomposition by proteinase K or serum: not appreciably increased

## COc1ccc(OC(=O)N(N(C)S(C)(=O)=O)S(C)(=O)=O)cc1 [Compound 9, 1,2-Bis(methylsulfonyl)-2-[(4-methoxyphenoxy)carbonyl]-1-methylhydrazine]
[6]
  Relative Activation Rate by GSH/GST: 1,700

## CS(=O)(=O)N(CCCl)N(C(=O)OCc1ccc([N+](=O)[O-])cc1)S(C)(=O)=O [Compound 10h, 1,2-Bis(methylsulfonyl)-1-(2-chloroethyl)-2-[(4-nitrobenzyloxy)carbonyl]hydrazine]
[7]; 1 mM phosphate buffer, 5 mM GSH, 17.5 U/ml GST, pH 7.4, 37° C.
  Calculated Activation Rate due to Catalyzed Thiolysis (5 mM GSH + 17.5 U/ml GST): 20.5 nmol/mL/min
[7]; GSH + GST
  rate of activation when thiolysis is catalyzed by GST (in words): relatively high rate of activation
[8]; 1 mM phosphate buffer, 5 mM GSH, pH 7.4, 37° C.
  Calculated Activation Rate due to Thiolysis (5 mM GSH): 0.06 nmol/mL/min
[8]; reacted with GSH
  rate of thiolysis with GSH (in words): extremely slow rate of thiolysis
[9]; 27-fold overexpression versus parental, FIG. 3
  sensitivity of cells overexpressing NADPH:cytochrome P450 reductase (in words): Increased sensitivity
[10]
  Av Δ wt (average percent change in body weight from onset to termination of therapy): -8.6%
[11]; FIGS. 3 and 4
  sensitivity of CHO-K1/dhfr^- cells compared with EMT6 cells (in words): less sensitive
[11]; hypoxic versus aerobic, FIGS. 3 and 4
  sensitivity of hypoxic CHO-K1/dhfr^- cells compared with aerobic counterparts (in words): more sensitive
[12]
  kill of hypoxic or oxygenated cells on overexpression of DT-diaphorase (in words): did not result in an increase in the kill of either hypoxic or oxygenated cells
[13]; 1 mM phosphate buffer, pH 7.4, 37° C.
  Calculated Activation Rate due to Hydrolysis: not detected
[13]; phosphate buffer, physiological pH
  hydrolysis in phosphate buffer (in words): little or no hydrolysis
[14]; 40 μM, aerobic (FIG. 1)
  toxicity to aerobic EMT6 cells (in words): relatively minor toxicity
[14]; Mus musculus, EMT6, 40 μM, hypoxic (FIG. 1), read-out: kill of hypoxic EMT6 cells
  log reduction at 40 µM: 2

## COc1cc(COC(=O)N(N(CCCl)S(C)(=O)=O)S(C)(=O)=O)c([N+](=O)[O-])cc1OC [Compound 12, 1,2-Bis(methylsulfonyl)-1-(2-chloroethyl)-2-[(4,5-dimethoxy-2-nitrobenzyloxy)carbonyl]hydrazine]
[9]; 1 hr, hypoxic versus aerobic (FIG. 6)
  cytotoxicity to hypoxic versus aerobic cells overexpressing NADPH-cytochrome P450 reductase: > 3000 times
[11]; 1 hr (FIG. 6)
  cytotoxicity to aerobic and hypoxic CHO-K1/dhfr^- cells (in words): results similar to those described for compound 10h
[14]; 50 μM, aerobic (FIG. 5)
  toxicity to aerobic EMT6 cells (in words): relatively minor toxicity
[14]; Mus musculus, EMT6, 50 μM, hypoxic (FIG. 5), read-out: kill of hypoxic EMT6 cells
  log reduction at 50 µM: > 3
